pIC50: −log10 of the molar value. Where two headings read alike, the source gives them in different places.
What was measured:
[1] = system: IL-6; assay: AGE (G-HSA)-induced inflammatory response determined by IL-6 ELISA in HAEC; type: cell-based, human; conditions: Homo sapiens; for activity at 10 µM: 24 h, Compds tested @ 10 uM, IL6, read-out: % IL6 production compare to AGE stimulation of IL6 (100%); for pIC50: IL6, unit inferred, read-out: IC50 (AGE stimulation of IL6)
Experimental: Human aortic endothelial cells (HAEC, Clonetics) were cultured according to manufacturer in growth medium (Clonetics): basal medium containing human epidermal growth factor, hydrocortisone, vascular endothelial growth factor, heparin binding growth factor-B, long R3-insulin-like growth factor-1, ascorbic acid, gentamicin/amphotericin and 5% FBS. These cell were allowed to reach at least 90% confluency before subjected to experimental treatments. […] Tumor necrosis factor α was from R&D Systems.
All treatments, compound-added and controls were carried out in serum free media containing 0.2% albumin. Media from all conditions were collected and used for IL-6 ELISA.
(§1) IL-6 ELISA was carried out using human IL-6 DuoSet ELISA development kit as described by manufacturer (R&D Systems). Mouse anti-human Il-6 was used as the capture antibody (2 ug/ml) and biotinylated goat anti-human IL-6 (200 ng/ml) was used as the detection antibody. Culture media were incubated with capture antibody (in 96 well) for 2 h at room temperature. Wells were washed three times with wash buffer (0.05% tween-20 in phosphate buffered saline (PBS) pH 7.4) followed by incubation with detection antibody for 2 h at room temperature. Following three washes wells were incubated with Streptavidin-HRP for 20 min. Color development was read at 450 nm in a Microplate reader.

[2] = system: IL-6; assay: TNF-α-induced IL-6 production determined by IL-6 ELISA in HAEC; type: cell-based, human; conditions: HAEC; for activity at 10 µM / pIC50: Homo sapiens, IL6; for activity at 10 µM: 24 h, Compds tested @ 10 uM, read-out: % IL6 production compare to TNF stimulation of IL6 (100%); for pIC50: unit inferred, read-out: IC50 (TNF stimulation of IL6); for Inhibition of TNF-induced IL6 production: class of % of control IL6 production
Experimental: Human aortic endothelial cells (HAEC, Clonetics) were cultured according to manufacturer in growth medium (Clonetics): basal medium containing human epidermal growth factor, hydrocortisone, vascular endothelial growth factor, heparin binding growth factor-B, long R3-insulin-like growth factor-1, ascorbic acid, gentamicin/amphotericin and 5% FBS. These cell were allowed to reach at least 90% confluency before subjected to experimental treatments. Glycated human serum albumin (G-HSA) was from US Biologicals. Tumor necrosis factor α was from R&D Systems.
[…] All treatments, compound-added and controls were carried out in serum free media containing 0.2% albumin. Media from all conditions were collected and used for IL-6 ELISA.
as §1

[3] = system: Human aortic smooth muscle cells; assay: Smooth muscle cell proliferation assay (anti-proliferation assay, perlecan); type: cell-based
[4] = Homo sapiens, anti-proliferation assay (perlecan), read-out: Activity (note 1)
[5] = Homo sapiens, anti-proliferation assay (perlecan), read-out: Avg IC-50
[6] = Homo sapiens, read-out: Activity (note 1)
[7] = Homo sapiens, read-out: Avg IC-50

Compound: CCN1CCCC1CNc1nc(NCc2ccccc2)nc(Nc2ccc(OC)c(F)c2)n1 (centres unmarked) [Compound 53, N^2-benzyl-N^4-[(1-ethyl-2-pyrrolidinyl)methyl]-N^6-(3-fluoro-4-methoxyphenyl)-1,3,5-triazine-2,4,6-triamine]
- activity at 10 µM [1]: 32%
- activity at 10 µM [2]: 1%

Compound: CCN1CCCC1CNc1nc(Nc2ccc(OC)c(F)c2)nc(N2CCCC2)n1 (centres unmarked) [Compound 57, N^2-[(1-ethyl-2-pyrrolidinyl)methyl]-N^4-(3-fluoro-4-methoxyphenyl)-6-(1-pyrrolidinyl)-1,3,5-triazine-2,4-diamine]
- activity at 10 µM [1]: 25%
- activity at 10 µM [2]: 1%

Compound: CCN1CCCC1CNc1nc(NCC2CCCCC2)nc(Nc2ccc(OC)c(F)c2)n1 (centres unmarked) [Compound 65, N^2-(cyclohexylmethyl)-N^4-[(1-ethyl-2-pyrrolidinyl)methyl]-N^6-(3-fluoro-4-methoxyphenyl)-1,3,5-triazine-2,4,6-triamine]
- activity at 10 µM [1]: 45%
- pIC50 [1]: 5.49
- activity at 10 µM [2]: 1%
- pIC50 [2]: 5.17

Compound: CCN1CCCC1CNc1nc(NCc2ccco2)nc(Nc2ccc(OC)c(F)c2)n1 (centres unmarked) [Compound 66, N^2-[(1-ethyl-2-pyrrolidinyl)methyl]-N^4-(3-fluoro-4-methoxyphenyl)-N^6-(2-furylmethyl)-1,3,5-triazine-2,4,6-triamine]
- activity at 10 µM [1]: 23%
- activity at 10 µM [2]: 1%

Compound: CCN1CCCC1CNc1nc(NCCN(C)C)nc(Nc2ccc(OC)c(F)c2)n1 (centres unmarked) [Compound 68, N^2-[2-(dimethylamino)ethyl]-N^4-[(1-ethyl-2-pyrrolidinyl)methyl]-N^6-(3-fluoro-4-methoxyphenyl)-1,3,5-triazine-2,4,6-triamine]
- activity at 10 µM [1]: 40%
- pIC50 [1]: 5.11
- activity at 10 µM [2]: 1%

Compound: CCN1CCCC1CNc1nc(Nc2ccc(OC)c(F)c2)nc(N2CCN(CC(=O)N3CCCC3)CC2)n1 (centres unmarked) [Compound 69, N^2-[(1-ethyl-2-pyrrolidinyl)methyl]-N^4-(3-fluoro-4-methoxyphenyl)-N^6-{4-[2-oxo-2-(1-pyrrolidinyl)ethyl]-1-piperazinyl}-1,3,5-triazine-2,4-diamine]
- activity at 10 µM [1]: 5%
- activity at 10 µM [2]: 1%

Compound: CCN1CCCC1CNc1nc(NCC2CCCN2CC)nc(Nc2ccc(OC)c(F)c2)n1 (centres unmarked) [Compound 70, N^2,N^4-bis[(1-ethyl-2-pyrrolidinyl)methyl]-N^6-(3-fluoro-4-methoxyphenyl)-1,3,5-triazine-2,4,6-triamine]
- activity at 10 µM [1]: 35%
- activity at 10 µM [2]: 1%

Compound: CCN1CCCC1CNc1nc(NCCN2CCCCC2)nc(Nc2ccc(OC)c(F)c2)n1 (centres unmarked) [Compound 71, N^2-[(1-ethyl-2-pyrrolidinyl)methyl]-N^4-(3-fluoro-4-methoxyphenyl)-N^6-[2-(1-piperidinyl)ethyl]-1,3,5-triazine-2,4,6-triamine]
- activity at 10 µM [1]: 29%
- activity at 10 µM [2]: 1%

Compound: CCN1CCCC1CNc1nc(Nc2ccc(OC)c(F)c2)nc(N2CCN(Cc3ccc4c(c3)OCO4)CC2)n1 (centres unmarked) [Compound 72, N^6-[4-(1,3-benzodioxol-5-ylmethyl)-1-piperazinyl]-N^2-[(1-ethyl-2-pyrrolidinyl)methyl]-N^4-(3-fluoro-4-methoxyphenyl)-1,3,5-triazine-2,4-diamine]
- activity at 10 µM [1]: 31%
- activity at 10 µM [2]: 5%

Compound: CCN1CCCC1CNc1nc(Nc2ccc(OC)c(F)c2)nc(N2CCN(c3ccccn3)CC2)n1 (centres unmarked) [Compound 73, N^2-[(1-ethyl-2-pyrrolidinyl)methyl]-N^4-(3-fluoro-4-methoxyphenyl)-N^6-[4-(2-pyridinyl)-1-piperazinyl]-1,3,5-triazine-2,4-diamine]
- activity at 10 µM [1]: 20%
- pIC50 [1]: 5.12
- activity at 10 µM [2]: 1%
- pIC50 [2]: 5.06

Compound: CCN1CCCC1CNc1nc(NCCCn2ccnc2)nc(Nc2ccc(OC)c(F)c2)n1 (centres unmarked) [Compound 75, N^2-[(1-ethyl-2-pyrrolidinyl)methyl]-N^4-(3-fluoro-4-methoxyphenyl)-N^6-[3-(1H-imidazol-1-yl)propyl]-1,3,5-triazine-2,4,6-triamine]
- activity at 10 µM [1]: 46%
- activity at 10 µM [2]: 43%

Compound: CCN1CCCC1CNc1nc(Nc2ccc(OC)c(F)c2)nc(NC2CCCCCC2)n1 (centres unmarked) [Compound 95, N^2-cycloheptyl-N^4-[(1-ethyl-2-pyrrolidinyl)methyl]-N^6-(3-fluoro-4-methoxyphenyl)-1,3,5-triazine-2,4,6-triamine]
- pIC50 [3, 4]: < 5.15
- pIC50 [3, 5]: 5.14
- activity at 10 µM [1]: 1%
- pIC50 [1]: 5.18
- Inhibition of TNF-induced IL6 production [2]: ++++ (between 0 and about 25% of IL6 production compared to cells that did not receive compound (or per cent of control IL6 production))
- activity at 10 µM [2]: 5%
- pIC50 [2]: 5.55

Compound: COc1ccc(Nc2nc(NCCCN3CCCC3=O)nc(NC3CCCCCC3)n2)cc1F [Compound 99, 1-[3-({4-(cycloheptylamino)-6-[(3-fluoro-4-methoxyphenyl)amino]-1,3,5-triazin-2-yl}amino)propyl]-2-pyrrolidinone]
- activity at 10 µM [1]: 8%
- pIC50 [1]: 5.22
- activity at 10 µM [2]: 39%

Compound: COc1ccc(Nc2nc(NCC3CCCCC3)nc(N(C)C3CCN(C)CC3)n2)cc1Cl [Compound 103, N-(3-Chloro-4-methoxy-phenyl)-N′-cyclohexylmethyl-N″-methyl-N″-(1-methyl-piperidin-4-yl)-[1,3,5]triazine-2,4,6-triamine]
- pIC50 [3, 4]: < 5.15
- pIC50 [3, 5]: ~5.15

Compound: CCCC(CCC)Nc1nc(Nc2ccc(OC)c(Cl)c2)nc(N(C)C2CCN(C)CC2)n1 [Compound 105, N-(3-Chloro-4-methoxy-phenyl)-N′-methyl-N′-(1-methyl-piperidin-4-yl)-N″-(1-propyl-butyl)-[1,3,5]triazine-2,4,6-triamine]
- pIC50 [3, 4]: < 5.15
- pIC50 [3, 5]: ~5.15

Compound: COc1ccc(Nc2nc(Cl)nc(NC3CCCCCC3)n2)cc1F [Compound 127, 6-Chloro-N-cycloheheptyl-N′-(3-fluoro-4-methoxy-phenyl)-[1,3,5]triazine-2,4-diamine]
- pIC50 [3, 4]: < 5.15
- pIC50 [3, 5]: 5.00
- activity at 10 µM [2]: 48%

Compound: COc1ccc(Nc2nc(NC3CCCCCC3)nc(N(C)C3CCN(C)CC3)n2)cc1Cl [Compound 137, N-(3-Chloro-4-methoxy-phenyl)-N′-cycloheptyl-N″-methyl-N″-(1-methyl-piperidin-4-yl)-[1,3,5]triazine-2,4,6-triamine]
- pIC50 [3, 4]: 5.15 to 5.52
- pIC50 [3, 5]: 5.30 to 5.40

Compound: CCN1CCC[C@H]1CNc1nc(Nc2ccc(OC)c(F)c2)nc(NC2CCCCCC2)n1 [Compound 139, N^2-cycloheptyl-N^4-((S)-1-ethyl-pyrrolidin-2-ylmethyl)-N^6-(3-fluoro-4-methoxyphenyl)-1,3,5-triazine-2,4,6-triamine]
- pIC50 [3, 6]: 5.15 to 5.52
- pIC50 [3, 7]: 5.30 to 5.40
- Inhibition of TNF-induced IL6 production [2]: ++++ (between 0 and about 25% of IL6 production compared to cells that did not receive compound (or per cent of control IL6 production))
- activity at 10 µM [2]: 16.1%

Compound: CCN1CCC[C@@H]1CNc1nc(Nc2ccc(OC)c(F)c2)nc(NC2CCCCCC2)n1 [Compound 140, N^2-cycloheptyl-N^4-((R)-1-ethyl-pyrrolidin-2-ylmethyl)-N^6-(3-fluoro-4-methoxyphenyl)-1,3,5-triazine-2,4,6-triamine]
- pIC50 [3, 6]: 5.15 to 5.52
- pIC50 [3, 7]: 5.30 to 5.40
- Inhibition of TNF-induced IL6 production [2]: ++++ (between 0 and about 25% of IL6 production compared to cells that did not receive compound (or per cent of control IL6 production))
- activity at 10 µM [2]: 12.6%

Compound: CCN(CC)c1ccc(Nc2nc(NCC3CCCN3CC)nc(NC3CCCCCC3)n2)cc1Cl (centres unmarked) [Compound 163]
- pIC50 ([3]; anti-proliferation assay (perlecan), read-out: Activity (note 1)): < 5.15
- pIC50 ([3]; anti-proliferation assay (perlecan), read-out: Avg IC-50): 5.00 to 5.10

Compound: COc1ccc(Nc2nc(NC3CCCCCC3)nc(N(C)C3CCN(C)CC3)n2)cc1Br [Compound 170]
- pIC50 [3, 4]: < 5.15
- pIC50 [3, 5]: 5.05 to 5.10

Compound: CN1CCC(N(C)c2nc(Nc3ccc4ccccc4c3)nc(NC3CCCCCC3)n2)CC1 [N^2-cycloheptyl-N^4-methyl-N^4-(1-methyl-piperidin-4-yl)-N^6-naphthalen-2-yl-1,3,5-triazine-2,4,6-triamine]
- activity in anti-proliferation assay (Perlecan) ([3]; same activity scale used in Table 3, in words): high activity

Reference: patent publication US7169785B2, “Methods and compositions of novel triazine compounds” (Reddy US Therapeutics, Inc., priority 2001, dated 2007)
